Results reported in US12077503B2, “Substituted cyclic amides and their use as herbicides” (FMC CORPORATION, priority 2015, dated 2024).

Key:
Experiment in all cases: Test C preemergence
Format in all cases: in vivo
[1] = test system: Galium (catchweed bedstraw, Galium aparine); settings: for Plant response rating, Galium: scale 0 to 100, 0 no effect, 100 complete control
Outline: (§1)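 Preemergence: sow in loam-sand soil and treat. Postemergence: grow in peat-moss/vermiculite medium to 2–18 cm (1–4 leaves) and spray. Compound in non-phytotoxic solvent with surfactant; keep in greenhouse 13–15 d; score visually against controls, 0 (none) to 100 (full control).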

[2] = test system: barnyardgrass (Echinochloa crus-galli); settings: for Plant response rating, Barnyardgrass: scale 0 to 100, 0 no effect, 100 complete control
Outline: as §1

[3] = test system: blackgrass (Alopecurus myosuroides); settings: for Plant response rating, Blackgrass: scale 0 to 100, 0 no effect, 100 complete control
Outline: as §1

corn (Zea mays) = settings: for Plant response rating, Corn: scale 0 to 100, 0 no effect, 100 complete control
Outline: as §1

[4] = test system: crabgrass, large (large crabgrass, Digitaria sanguinalis); settings: for Plant response rating, Crabgrass, Large: scale 0 to 100, 0 no effect, 100 complete control
Outline: as §1

[5] = test system: foxtail, giant (giant foxtail, Setaria faberii); settings: for Plant response rating, Foxtail, Giant: scale 0 to 100, 0 no effect, 100 complete control
Outline: as §1

[6] = test system: johnsongrass (Sorghum halepense); settings: for Plant response rating, Johnsongrass: scale 0 to 100, 0 no effect, 100 complete control
Outline: as §1

[7] = test system: lambsquarters (Chenopodium album); settings: for Plant response rating, Lambsquarters: scale 0 to 100, 0 no effect, 100 complete control
Outline: as §1

[8] = test system: morningglory (Ipomoea coccinea); settings: for Plant response rating, Morningglory: scale 0 to 100, 0 no effect, 100 complete control
Outline: as §1

[9] = test system: nutsedge, yellow (yellow nutsedge, Cyperus esculentus); settings: for Plant response rating, Nutsedge, Yellow: scale 0 to 100, 0 no effect, 100 complete control
Outline: as §1

[10] = test system: oilseed rape (Brassica napus); settings: for Plant response rating, Oilseed Rape: scale 0 to 100, 0 no effect, 100 complete control
Outline: as §1

[11] = test system: pigweed (Amaranthus retroflexus); settings: for Plant response rating, Pigweed: scale 0 to 100, 0 no effect, 100 complete control
Outline: as §1

[12] = test system: ragweed (common ragweed, Ambrosia elatior); settings: for Plant response rating, Ragweed: scale 0 to 100, 0 no effect, 100 complete control
Outline: as §1

[13] = test system: ryegrass, Italian (Italian ryegrass, Lolium multiflorum); settings: for Plant response rating, Ryegrass, Italian: scale 0 to 100, 0 no effect, 100 complete control
Outline: as §1

soybean (Glycine max) = settings: for Plant response rating, Soybean: scale 0 to 100, 0 no effect, 100 complete control
Outline: as §1

[14] = test system: velvetleaf (Abutilon theophrasti); settings: for Plant response rating, Velvetleaf: scale 0 to 100, 0 no effect, 100 complete control
Outline: as §1

[15] = test system: waterhemp (common waterhemp, Amaranthus rudis); settings: for Plant response rating, Waterhemp: scale 0 to 100, 0 no effect, 100 complete control
Outline: as §1

[16] = test system: wheat (winter wheat, Triticum aestivum); settings: for Plant response rating, Wheat: scale 0 to 100, 0 no effect, 100 complete control
Outline: as §1

[17] = 31 g ai/ha, 0 is no effect, 100 is complete control

CC(C)Oc1cccc(C2CN(C)C(=O)C2C(=O)Nc2cccc(F)c2F)c1 (centres unmarked) [Compound 651]
Plant response rating (scale of 0 to 100), Galium [1, 17]: 60 | Plant response rating, Galium ([1]; 62 g ai/ha): 50 | Plant response rating, Galium ([1]; 125 g ai/ha): 90 | Plant response rating, Galium ([1]; 250 g ai/ha): 90 | Plant response rating (scale of 0 to 100), Barnyardgrass [2, 17]: 95 | Plant response rating, Barnyardgrass ([2]; 62 g ai/ha): 98 | Plant response rating, Barnyardgrass ([2]; 125 g ai/ha): 100 | Plant response rating, Barnyardgrass ([2]; 250 g ai/ha): 100 | Plant response rating (scale of 0 to 100), Blackgrass [3, 17]: 40 | Plant response rating, Blackgrass ([3]; 62 g ai/ha): 45 | Plant response rating, Blackgrass ([3]; 125 g ai/ha): 60 | Plant response rating, Blackgrass ([3]; 250 g ai/ha): 85 | Plant response rating (scale of 0 to 100), Corn (corn (Zea mays); [17]): 25 | Plant response rating, Corn (corn (Zea mays); 62 g ai/ha): 55 | Plant response rating, Corn (corn (Zea mays); 125 g ai/ha): 70 | Plant response rating, Corn (corn (Zea mays); 250 g ai/ha): 70 | Plant response rating (scale of 0 to 100), Crabgrass, Large [4, 17]: 98 | Plant response rating, Crabgrass, Large ([4]; 62 g ai/ha): 100 | Plant response rating, Crabgrass, Large ([4]; 125 g ai/ha): 100 | Plant response rating, Crabgrass, Large ([4]; 250 g ai/ha): 100 | Plant response rating (scale of 0 to 100), Foxtail, Giant [5, 17]: 95 | Plant response rating, Foxtail, Giant ([5]; 62 g ai/ha): 98 | Plant response rating, Foxtail, Giant ([5]; 125 g ai/ha): 98 | Plant response rating, Foxtail, Giant ([5]; 250 g ai/ha): 100 | Plant response rating (scale of 0 to 100), Johnsongrass [6, 17]: 20 | Plant response rating, Johnsongrass ([6]; 62 g ai/ha): 50 | Plant response rating, Johnsongrass ([6]; 125 g ai/ha): 70 | Plant response rating, Johnsongrass ([6]; 250 g ai/ha): 80 | Plant response rating (scale of 0 to 100), Lambsquarters [7, 17]: 35 | Plant response rating, Lambsquarters ([7]; 62 g ai/ha): 55 | Plant response rating, Lambsquarters ([7]; 125 g ai/ha): 85 | Plant response rating, Lambsquarters ([7]; 250 g ai/ha): 100 | Plant response rating (scale of 0 to 100), Morningglory [8, 17]: 0 | Plant response rating, Morningglory ([8]; 62 g ai/ha): 0 | Plant response rating, Morningglory ([8]; 125 g ai/ha): 0 | Plant response rating, Morningglory ([8]; 250 g ai/ha): 0 | Plant response rating (scale of 0 to 100), Nutsedge, Yellow [9, 17]: 0 | Plant response rating, Nutsedge, Yellow ([9]; 62 g ai/ha): 0 | Plant response rating, Nutsedge, Yellow ([9]; 125 g ai/ha): 0 | Plant response rating, Nutsedge, Yellow ([9]; 250 g ai/ha): 0 | Plant response rating (scale of 0 to 100), Oilseed Rape [10, 17]: 75 | Plant response rating, Oilseed Rape ([10]; 62 g ai/ha): 80 | Plant response rating, Oilseed Rape ([10]; 125 g ai/ha): 90 | Plant response rating, Oilseed Rape ([10]; 250 g ai/ha): 90 | Plant response rating (scale of 0 to 100), Pigweed [11, 17]: 35 | Plant response rating, Pigweed ([11]; 62 g ai/ha): 40 | Plant response rating, Pigweed ([11]; 125 g ai/ha): 50 | Plant response rating, Pigweed ([11]; 250 g ai/ha): 85 | Plant response rating (scale of 0 to 100), Ragweed [12, 17]: 20 | Plant response rating, Ragweed ([12]; 62 g ai/ha): 25 | Plant response rating, Ragweed ([12]; 125 g ai/ha): 60 | Plant response rating, Ragweed ([12]; 250 g ai/ha): 85 | Plant response rating (scale of 0 to 100), Ryegrass, Italian [13, 17]: 15 | Plant response rating, Ryegrass, Italian ([13]; 62 g ai/ha): 40 | Plant response rating, Ryegrass, Italian ([13]; 125 g ai/ha): 75 | Plant response rating, Ryegrass, Italian ([13]; 250 g ai/ha): 85 | Plant response rating (scale of 0 to 100), Soybean (soybean (Glycine max); [17]): 5 | Plant response rating, Soybean (soybean (Glycine max); 125 g ai/ha): 0 | Plant response rating (scale of 0 to 100), Velvetleaf [14, 17]: 25 | Plant response rating, Velvetleaf ([14]; 62 g ai/ha): 45 | Plant response rating, Velvetleaf ([14]; 125 g ai/ha): 70 | Plant response rating, Velvetleaf ([14]; 250 g ai/ha): 70 | Plant response rating (scale of 0 to 100), Waterhemp [15, 17]: 20 | Plant response rating, Waterhemp ([15]; 62 g ai/ha): 40 | Plant response rating, Waterhemp ([15]; 125 g ai/ha): 50 | Plant response rating, Waterhemp ([15]; 250 g ai/ha): 85 | Plant response rating (scale of 0 to 100), Wheat [16, 17]: 50 | Plant response rating, Wheat ([16]; 62 g ai/ha): 50 | Plant response rating, Wheat ([16]; 125 g ai/ha): 55 | Plant response rating, Wheat ([16]; 250 g ai/ha): 75

O=C1NCC(c2ccc(Br)cc2)C1C(=O)Nc1cccc(F)c1F (centres unmarked) [Compound 446]
Plant response rating, Galium ([1]; 31 g ai/ha): 0 | Plant response rating, Galium ([1]; 62 g ai/ha): 90 | Plant response rating, Galium ([1]; 125 g ai/ha): 90 | Plant response rating, Galium ([1]; 250 g ai/ha): 95 | Plant response rating, Barnyardgrass ([2]; 31 g ai/ha): 90 | Plant response rating, Barnyardgrass ([2]; 62 g ai/ha): 90 | Plant response rating, Barnyardgrass ([2]; 125 g ai/ha): 90 | Plant response rating, Barnyardgrass ([2]; 250 g ai/ha): 95 | Plant response rating, Blackgrass ([3]; 31 g ai/ha): 0 | Plant response rating, Blackgrass ([3]; 62 g ai/ha): 0 | Plant response rating, Blackgrass ([3]; 125 g ai/ha): 50 | Plant response rating, Blackgrass ([3]; 250 g ai/ha): 55 | Plant response rating, Corn (corn (Zea mays); 31 g ai/ha): 0 | Plant response rating, Corn (corn (Zea mays); 62 g ai/ha): 0 | Plant response rating, Corn (corn (Zea mays); 125 g ai/ha): 0 | Plant response rating, Corn (corn (Zea mays); 250 g ai/ha): 10 | Plant response rating, Crabgrass, Large ([4]; 31 g ai/ha): 100 | Plant response rating, Crabgrass, Large ([4]; 62 g ai/ha): 100 | Plant response rating, Crabgrass, Large ([4]; 125 g ai/ha): 100 | Plant response rating, Crabgrass, Large ([4]; 250 g ai/ha): 100 | Plant response rating, Foxtail, Giant ([5]; 31 g ai/ha): 85 | Plant response rating, Foxtail, Giant ([5]; 62 g ai/ha): 90 | Plant response rating, Foxtail, Giant ([5]; 125 g ai/ha): 90 | Plant response rating, Foxtail, Giant ([5]; 250 g ai/ha): 95 | Plant response rating, Johnsongrass ([6]; 31 g ai/ha): 20 | Plant response rating, Johnsongrass ([6]; 62 g ai/ha): 40 | Plant response rating, Johnsongrass ([6]; 125 g ai/ha): 50 | Plant response rating, Johnsongrass ([6]; 250 g ai/ha): 65 | Plant response rating, Lambsquarters ([7]; 31 g ai/ha): 60 | Plant response rating, Lambsquarters ([7]; 62 g ai/ha): 50 | Plant response rating, Lambsquarters ([7]; 125 g ai/ha): 55 | Plant response rating, Lambsquarters ([7]; 250 g ai/ha): 95 | Plant response rating, Morningglory ([8]; 31 g ai/ha): 0 | Plant response rating, Morningglory ([8]; 62 g ai/ha): 0 | Plant response rating, Morningglory ([8]; 125 g ai/ha): 0 | Plant response rating, Morningglory ([8]; 250 g ai/ha): 0 | Plant response rating, Nutsedge, Yellow ([9]; 31 g ai/ha): 0 | Plant response rating, Nutsedge, Yellow ([9]; 62 g ai/ha): 0 | Plant response rating, Nutsedge, Yellow ([9]; 125 g ai/ha): 0 | Plant response rating, Nutsedge, Yellow ([9]; 250 g ai/ha): 0 | Plant response rating, Oilseed Rape ([10]; 31 g ai/ha): 0 | Plant response rating, Oilseed Rape ([10]; 62 g ai/ha): 85 | Plant response rating, Oilseed Rape ([10]; 125 g ai/ha): 90 | Plant response rating, Oilseed Rape ([10]; 250 g ai/ha): 95 | Plant response rating, Pigweed ([11]; 31 g ai/ha): 50 | Plant response rating, Pigweed ([11]; 62 g ai/ha): 75 | Plant response rating, Pigweed ([11]; 125 g ai/ha): 80 | Plant response rating, Pigweed ([11]; 250 g ai/ha): 85 | Plant response rating, Ragweed ([12]; 31 g ai/ha): 25 | Plant response rating, Ragweed ([12]; 62 g ai/ha): 40 | Plant response rating, Ragweed ([12]; 125 g ai/ha): 75 | Plant response rating, Ragweed ([12]; 250 g ai/ha): 85 | Plant response rating, Ryegrass, Italian ([13]; 62 g ai/ha): 0 | Plant response rating, Ryegrass, Italian ([13]; 125 g ai/ha): 0 | Plant response rating, Ryegrass, Italian ([13]; 250 g ai/ha): 45 | Plant response rating, Soybean (soybean (Glycine max); 62 g ai/ha): 20 | Plant response rating, Soybean (soybean (Glycine max); 125 g ai/ha): 10 | Plant response rating, Soybean (soybean (Glycine max); 250 g ai/ha): 25 | Plant response rating, Velvetleaf ([14]; 62 g ai/ha): 0 | Plant response rating, Velvetleaf ([14]; 125 g ai/ha): 10 | Plant response rating, Velvetleaf ([14]; 250 g ai/ha): 30 | Plant response rating, Waterhemp ([15]; 62 g ai/ha): 100 | Plant response rating, Waterhemp ([15]; 125 g ai/ha): 80 | Plant response rating, Waterhemp ([15]; 250 g ai/ha): 98 | Plant response rating, Wheat ([16]; 62 g ai/ha): 0 | Plant response rating, Wheat ([16]; 125 g ai/ha): 0 | Plant response rating, Wheat ([16]; 250 g ai/ha): 30
